Results reported in ChEMBL document CHEMBL1201862, “PubChem BioAssay data set” (2004).
Several values for one entry are separate records, joined by “and”; a condition that tells them apart may be missing. Equal entries are not always repeated.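 All cell lines were grown in 96-well plates and treated with compound for 48 hours. The concentration for 50% growth inhibition is given as GI50.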 Activity calls are given as the source filed them. No stated cut-off is given here; in the data, active = GI50 up to about 1.1 µM and inactive = higher.

Assays:
Experiment in all cases: NCI tumour cell line growth inhibition, 48 h
[1] = system: 786-0
[2] = system: A549
[3] = system: COLO 205
[4] = system: DU-145
[5] = system: EKVX
[6] = system: HOP-62
[7] = system: HOP-92
[8] = system: Hs-578T
[9] = system: IGROV-1
[10] = system: KM12
[11] = system: M14
[12] = system: NCI-H522
[13] = system: NCI/ADR-RES
[14] = system: SF-268
[15] = system: SF-295
[16] = system: SR
[17] = system: UACC-62
[18] = system: HL-60
[19] = system: MDA-MB-231
[20] = system: Malme-3M

| Compound | GI50 [1] | GI50 [2] | GI50 [3] | GI50 [4] | GI50 [5] | GI50 [6] | GI50 [7] | GI50 [8] | GI50 [9] | GI50 [10] | GI50 [11] | GI50 [12] | GI50 [13] | GI50 [14] | GI50 [15] | GI50 [16] | GI50 [17] | GI50 [18] | GI50 [19] | GI50 [20] |
| --- | --- | --- | --- | --- | --- | --- | --- | --- | --- | --- | --- | --- | --- | --- | --- | --- | --- | --- | --- | --- |
| COc1cccc(C2c3cc4c(cc3OC(N3CCCC3)C2C)OCO4)c1 (stereo unspecified) | 9.62 µM (inactive) | 9.2 µM (inactive) | 9.77 µM (inactive) | 16.3 µM (inactive) | 21.3 µM (inactive) | 4.63 µM (inactive) | 2.83 µM (inactive) | 8.3 µM (inactive) | 6.32 µM (inactive) | 6.01 µM (inactive) | 3.96 µM (inactive) | 3.92 µM (inactive) | 4.53 µM (inactive) | 14.7 µM (inactive) | 3.04 µM (inactive) | 3.82 µM (inactive) | 4.66 µM (inactive) | – | – | – |
| COC(=O)CCC12CCC(O1)c1ccccc12 (stereo unspecified) | > 100 µM (inactive) | > 100 µM (inactive) | > 100 µM (inactive) | > 100 µM (inactive) | > 100 µM (inactive) | > 100 µM (inactive) | 92.5 µM (inactive) | – | > 100 µM (inactive) | > 100 µM (inactive) | > 100 µM (inactive) | > 100 µM (inactive) | > 100 µM (inactive) | – | > 100 µM (inactive) | > 100 µM (inactive) | > 100 µM (inactive) | > 100 µM (inactive) | > 100 µM (inactive) | – |
| O=C(CN1CCCC1)Nc1ccc2c(c1)C1Oc3ccccc3CC1CO2 (stereo unspecified) | 24.7 µM (inactive) | 41.7 µM (inactive) | 14 µM (inactive) | > 100 µM (inactive) | 69.3 µM (inactive) | 19.7 µM (inactive) | 16.7 µM (inactive) | – | 36.6 µM (inactive) | 43.4 µM (inactive) | 20.1 µM (inactive) | 32.4 µM (inactive) | 73.3 µM (inactive) | 67 µM (inactive) | 20.5 µM (inactive) | 33.3 µM (inactive) | 17 µM (inactive) | 46.6 µM (inactive) | 22.9 µM (inactive) | 16.7 µM (inactive) |
| NC(=S)N/N=C(\CCC(=O)Nc1ccccc1[N+](=O)[O-])CC(=O)c1ccco1 | > 100 µM (inactive) | > 100 µM (inactive) | > 100 µM (inactive) | – | > 100 µM (inactive) | > 100 µM (inactive) | > 100 µM (inactive) | – | > 100 µM (inactive) | > 100 µM (inactive) | > 100 µM (inactive) | > 100 µM (inactive) | – | > 100 µM (inactive) | > 100 µM (inactive) | > 100 µM (inactive) | > 100 µM (inactive) | > 100 µM (inactive) | – | > 100 µM (inactive) |
| CC(C)(CCl)NC(=O)c1cccc(C(=O)NC(C)(C)CCl)n1 | > 100 µM (inactive) | > 100 µM (inactive) | > 100 µM (inactive) | – | > 100 µM (inactive) | > 100 µM (inactive) | > 100 µM (inactive) | – | > 100 µM (inactive) | > 100 µM (inactive) | > 100 µM (inactive) | > 100 µM (inactive) | – | > 100 µM (inactive) | > 100 µM (inactive) | > 100 µM (inactive) | – | > 100 µM (inactive) | – | > 100 µM (inactive) |
| Cc1cn2c(=O)c3ccccc3nc2s1 | > 100 µM (inactive) | > 100 µM (inactive) | > 100 µM (inactive) | – | > 100 µM (inactive) | > 100 µM (inactive) | > 100 µM (inactive) | – | > 100 µM (inactive) | > 100 µM (inactive) | > 100 µM (inactive) | > 100 µM (inactive) | – | > 100 µM (inactive) | > 100 µM (inactive) | > 100 µM (inactive) | > 100 µM (inactive) | > 100 µM (inactive) | – | > 100 µM (inactive) |
| NC1=NC2=c3ccccc3=C(c3cnccn3)C2(c2cnccn2)c2ccccc21 (stereo unspecified) | > 100 µM (inactive) | 45.7 µM (inactive) | 32.4 µM (inactive) | – | 44.7 µM (inactive) | > 100 µM (inactive) | 37.9 µM (inactive) | – | > 100 µM (inactive) | 81.8 µM (inactive) | > 100 µM (inactive) | 49.5 µM (inactive) | – | 74.1 µM (inactive) | 42.2 µM (inactive) | 39.5 µM (inactive) | > 100 µM (inactive) | 52.8 µM (inactive) | – | 49.9 µM (inactive) |
| CC(C)(C)C=C=C(C(C)(C)C)P(=O)(O)O | > 100 µM (inactive) | > 100 µM (inactive) | > 100 µM (inactive) | > 100 µM (inactive) | > 100 µM (inactive) | > 100 µM (inactive) | > 100 µM (inactive) | > 100 µM (inactive) | > 100 µM (inactive) | > 100 µM (inactive) | > 100 µM (inactive) | > 100 µM (inactive) | > 100 µM (inactive) | > 100 µM (inactive) | > 100 µM (inactive) | > 100 µM (inactive) | > 100 µM (inactive) | > 100 µM (inactive) | – | > 100 µM (inactive) |
| CCOC(=O)N1Cc2ccoc2C1 | > 100 µM (inactive) | 43.7 µM (inactive) | > 100 µM (inactive) | – | > 100 µM (inactive) | > 100 µM (inactive) | > 100 µM (inactive) | – | > 100 µM (inactive) | > 100 µM (inactive) | > 100 µM (inactive) | > 100 µM (inactive) | – | 0.769 µM (active) | > 100 µM (inactive) | > 100 µM (inactive) | > 100 µM (inactive) | > 100 µM (inactive) | – | > 100 µM (inactive) |
| O=c1c2cc(I)ccc2nc(-c2cccs2)n1/N=C/c1ccccc1 | > 100 µM (inactive) | > 100 µM (inactive) | > 100 µM (inactive) | > 100 µM (inactive) | > 100 µM (inactive) | > 100 µM (inactive) | > 100 µM (inactive) | – | > 100 µM (inactive) | > 100 µM (inactive) | > 100 µM (inactive) | > 100 µM (inactive) | > 100 µM (inactive) | > 100 µM (inactive) | > 100 µM (inactive) | 10.1 µM (inactive) | > 100 µM (inactive) | > 100 µM (inactive) | – | – |
| C=CCCn1nc(-c2ccccc2)oc1=O | > 100 µM (inactive) | > 100 µM (inactive) | > 100 µM (inactive) | – | > 100 µM (inactive) | > 100 µM (inactive) | > 100 µM (inactive) | – | > 100 µM (inactive) | > 100 µM (inactive) | > 100 µM (inactive) | > 100 µM (inactive) | – | > 100 µM (inactive) | > 100 µM (inactive) | > 100 µM (inactive) | > 100 µM (inactive) | > 100 µM (inactive) | – | > 100 µM (inactive) |
| CN/N=C(/Cc1occc(=O)c1O)C(=O)Nc1ccccc1C | > 100 µM (inactive) | > 100 µM (inactive) | > 100 µM (inactive) | – | > 100 µM (inactive) | > 100 µM (inactive) | 20.4 µM (inactive) | – | > 100 µM (inactive) | > 100 µM (inactive) | > 100 µM (inactive) | > 100 µM (inactive) | – | > 100 µM (inactive) | > 100 µM (inactive) | > 100 µM (inactive) | > 100 µM (inactive) | > 100 µM (inactive) | – | > 100 µM (inactive) |
| Cc1cc(Br)c(N2C3=C(CC4=C2CCCC4=O)C(=O)CCC3)c(Br)c1 | 96.6 µM (inactive) | 39.8 µM (inactive) | – | – | 31 µM (inactive) | – | 25.6 µM (inactive) | > 100 µM (inactive) | > 100 µM (inactive) | 62.5 µM (inactive) | > 100 µM (inactive) | – | 32.1 µM (inactive) | 75.5 µM (inactive) | – | 36.6 µM (inactive) | 63.2 µM (inactive) | 32.7 µM (inactive) | – | – |
| N#C/C(=C\c1ccc(O)cc1)C(N)=O | > 100 µM (inactive) | > 100 µM (inactive) | > 100 µM (inactive) | – | > 50.7 µM (inactive) | > 100 µM (inactive) | > 100 µM (inactive) | – | > 100 µM (inactive) | > 100 µM (inactive) and > 74.6 µM (inactive) | > 100 µM (inactive) | – | > 100 µM (inactive) | > 100 µM (inactive) | > 100 µM (inactive) | – | > 100 µM (inactive) | > 100 µM (inactive) and 57.7 µM (inactive) | – | > 100 µM (inactive) |
| CN=[S+]([O-])(c1ccccc1)c1ccccc1 | > 100 µM (inactive) | > 100 µM (inactive) | > 100 µM (inactive) | – | > 100 µM (inactive) | > 100 µM (inactive) | > 100 µM (inactive) | – | > 100 µM (inactive) | > 100 µM (inactive) | > 100 µM (inactive) | > 100 µM (inactive) | – | > 100 µM (inactive) | > 100 µM (inactive) | > 100 µM (inactive) | > 100 µM (inactive) | > 100 µM (inactive) | – | > 100 µM (inactive) |
| O=C(COc1ccccc1Cl)N1N=C(c2ccccc2)CC1(O)c1ccccc1 (stereo unspecified) | 17.3 µM (inactive) | 16.9 µM (inactive) | 18 µM (inactive) | – | – | 15.1 µM (inactive) | 22.3 µM (inactive) | – | 17.9 µM (inactive) | 21.2 µM (inactive) | 17 µM (inactive) | 41.9 µM (inactive) | – | 24.6 µM (inactive) | 20.5 µM (inactive) | 4.61 µM (inactive) | 12.8 µM (inactive) | 9.42 µM (inactive) | – | 14.9 µM (inactive) |
| NC(Cc1ccc(O)c(O)c1)P(=O)(O)O (stereo unspecified) | > 100 µM (inactive) | > 100 µM (inactive) | > 10 µM (inactive) | > 100 µM (inactive) | – | – | > 100 µM (inactive) | – | > 100 µM (inactive) | > 100 µM (inactive) | > 100 µM (inactive) | 4.75 µM (inactive) | > 100 µM (inactive) | > 100 µM (inactive) | > 100 µM (inactive) | 91.8 µM (inactive) | > 100 µM (inactive) | 16.2 µM (inactive) | > 100 µM (inactive) | 81.5 µM (inactive) |
